Activity calls are given as the source filed them. The rule behind the calls is not given here.

These results are taken from PubChem BioAssay AID789 (SRMLSC, 2007).

The nature of assay [1]: growth inhibition of apl2Δ yeast, dose response, selectivity assay for post-Golgi transport modulator project, S. cerevisiae, secondary screen, background strain comparison (AID 789). The conditions noted are these: S. cerevisiae background (wild-type parent) strain growth inhibition.
For assay [2], the system named is S. cerevisiae apl2Δ mutant growth inhibition. Described as above.

As to `C/C(CCC12CC3CC(CC(C3)C1)C2)=N\NC(N)=S`, the IC50 was 5.28 µM in assay [1] and 4.94 µM in assay [2].
Regarding `Cc1ccc(NS(=O)(=O)c2cc(C(=O)N3CCOCC3)ccc2C)cc1`, the IC50 in assay [1] was above 10 µM; in assay [2], > 10 µM (inactive).
With `CCC(OC(=O)C(NC(=O)c1ccccc1)c1ccccc1)C(=O)Nc1cc(C)on1` (centres undefined), the IC50 is above 10 µM in assay [1] and > 10 µM (inactive) in assay [2].
For `Cc1ccc(CN2CCN(/N=C/c3cc(Br)ccc3O)CC2)cc1` the same measures were above 10 µM and > 10 µM (inactive).
`COc1ccccc1N1CCN(CC(O)c2ccc3cc[nH]c3c2)CC1` (centres undefined): the IC50 in assay [1] was above 10 µM; in assay [2], > 10 µM (inactive).
`COc1ccc(NC(=S)NC(NC(=O)c2ccc(Cl)cc2Cl)C(Cl)(Cl)Cl)c([N+](=O)[O-])c1` (centres undefined): the IC50 in assay [1] is above 10 µM; in assay [2] it was > 10 µM (inactive).
Regarding `COc1ccc(N2CCN(C(=O)CCNS(=O)(=O)c3ccc(Br)s3)CC2)cc1`, the IC50 is above 10 µM in assay [1] and > 10 µM (inactive) in assay [2].
For `N#Cc1nc(COc2ccc(-c3ccccc3)cc2)oc1NCCCN1CCOCC1`, the IC50 in assay [1] was 15.4 µM; in assay [2], 17.2 µM (inactive).
Take `Nc1ccc(Oc2ccc3nc(-c4ccccc4)c(-c4ccccc4)nc3c2)cc1`: the IC50 in assay [1] was 1.21 µM; in assay [2] it was 2 µM (inactive).
Consider `Clc1ccc(-c2n[nH]c3c2CCC3)cc1Cl`, for which the IC50 is 1.81 µM in assay [1] and 2.74 µM (inactive) in assay [2].
For `COc1ccc(N2CCN(c3oc(-c4ccco4)nc3C#N)CC2)cc1`, the IC50 in assay [1] was above 10 µM; in assay [2] it was > 10 µM (inactive).
As to `CCOC(=O)NC(Nc1ccc(S(N)(=O)=O)cc1)(C(=O)OCC)C(F)(F)F` (centres undefined), the results for the IC50 in assay [1] and in assay [2] were above 10 µM and > 10 µM (inactive), respectively.
With `Cc1ccc(N2CCN(S(=O)(=O)N3CCCCCC3)CC2)cc1Cl`, the figures for the IC50 in assay [1] and in assay [2] were above 10 µM and > 10 µM (inactive), respectively.
As for `C=C(C)C1CC=C(CN2CCC(C(=O)OCC)CC2)CC1` (centres undefined), the IC50 is above 10 µM in assay [1] and > 10 µM (inactive) in assay [2].
In the case of `O=c1cccc2n1CC1CC2CN(S(=O)(=O)c2ccccc2)C1` (centres undefined), the IC50 in assay [1] is above 10 µM; in assay [2], > 10 µM (inactive).
For `O=C(NCC(=O)N(c1cccnc1)C(C(=O)NCc1ccco1)c1ccccc1)c1ccco1` (centres undefined), in that order: above 10 µM and > 10 µM (inactive).
On to `O=S(=O)(c1ccc(Cl)cc1)N1CCN(C2CCN(Cc3ccccc3)CC2)CC1`, for which the 50% inhibitory concentration (IC50) was above 10 µM in assay [1] and > 10 µM (inactive) in assay [2].
For `Cc1ccc(C(=O)c2c(NC(=O)c3ccncc3)sc3c2CCCC3)cc1`, in that order: above 10 µM and > 10 µM (inactive).
With `CCOC(=O)C1=C(N)N2C(=O)C(C)SC2=C(C(=O)OC)C1c1ccccc1OC` (centres undefined), the IC50 was 0.163 µM in assay [1] and 9.99 µM (inactive) in assay [2].
Regarding `CCc1n[nH]c2c1/C(=N\O)CC(C)(C)C2`, the 50% inhibitory concentration (IC50) was above 10 µM in assay [1] and > 10 µM (inactive) in assay [2].
Turning to `CCOC(=O)Cc1c(C)c2ccc(N(CC)CC)cc2oc1=O`, the IC50 is above 10 µM in assay [1] and > 10 µM (inactive) in assay [2].
On to `O=C(O)Cn1c(SCCOc2ccccc2F)nc2ccccc21`, for which the figures for the IC50 in assay [1] and in assay [2] were above 10 µM and > 10 µM (inactive), respectively.
Regarding `Cc1nn(-c2ccccn2)c(C)c1Oc1ccccc1O`, the results for the IC50 in assay [1] and in assay [2] were above 10 µM and > 10 µM (inactive), respectively.
For `Cc1ccnc(N2C(=O)c3cccc4c([N+](=O)[O-])ccc(c34)C2=O)c1`, in that order: 4.22 µM and 7.94 µM (inactive).
For `Cc1cc(C)n2nc(C(=O)NCc3ccccc3)cc2n1`, the IC50 was above 10 µM in assay [1] and > 10 µM (inactive) in assay [2].
Turning to `O=C(NCc1ccccc1)NS(=O)(=O)c1ccccc1Cl`, the IC50 in assay [1] is above 10 µM; in assay [2], > 10 µM (inactive).
`CC(NC(=O)CSc1nc2c(cc1C#N)CN(C)CC2)c1ccccc1` (centres undefined): the IC50 in assay [1] is above 10 µM; in assay [2], > 10 µM (inactive).
For `O=C(Nc1cccc(Cl)c1)N1CCN(C/C=C/c2ccccc2)CC1`, the IC50 in assay [1] is above 10 µM; in assay [2] it was > 10 µM (inactive).
As to `ON=Cc1cccn1-c1ccccc1`, the concentration for half-maximal inhibition (IC50) is above 10 µM in assay [1] and > 10 µM (inactive) in assay [2].
Regarding `COc1cccc(C(=O)N2CCN(C3CCC(c4ccccc4)CC3)CC2)c1OC` (centres undefined), the results for the IC50 in assay [1] and in assay [2] were 23.9 µM and 14.6 µM, respectively.
As for `O=C(NC1CCN(Cc2ccccc2)CC1)C1COc2ccccc2O1` (centres undefined), the IC50 was above 10 µM in assay [1] and > 10 µM (inactive) in assay [2].
For `OC(Cn1ccnc1)c1ccc(Cl)cc1Cl` (centres undefined), in that order: above 10 µM and > 10 µM (inactive).
For `O=C(N/N=C/c1ccc(OC(=O)c2ccccc2)cc1)c1ccc(CN2CCOCC2)cc1`, the IC50 was above 10 µM in assay [1] and > 10 µM (inactive) in assay [2].
In the case of `CCCc1cc(NCCCCO)n2c(nc3ccccc32)c1C#N`, the IC50 in assay [1] is above 10 µM; in assay [2], > 10 µM (inactive).
As to `N#CC1=C2SCC(O)(c3ccccc3)N2C(=O)CC1c1ccccc1` (centres undefined), the half-inhibitory concentration (IC50) in assay [1] is above 10 µM; in assay [2], > 10 µM (inactive).
For `CC1CN(CC(O)COc2ccc(C(C)C)cc2)CC(C)O1` (centres undefined), in that order: above 10 µM and > 10 µM (inactive).
For `O=C(COc1ccc(Cl)cc1Cl)NCCCN1CCOCC1`, in that order: above 10 µM and > 10 µM (inactive).
Turning to `Cc1nc(NC(=O)c2ccccc2)sc1-c1csc(Nc2ccc(F)cc2)n1`, the values for the IC50 in assay [1] and in assay [2] were above 10 µM and > 10 µM (inactive), respectively.
For the compound `COc1ccc(Nc2nc(N)nc(CSc3nnc(N)s3)n2)cc1`, the IC50 in assay [1] is above 10 µM; in assay [2], > 10 µM (inactive).
For `FC(F)(F)COc1nc(N2CCCCC2)nc(N2CCNCC2)n1`, the IC50 in assay [1] is above 10 µM; in assay [2], > 10 µM (inactive).
Take `CCC(=O)c1ccc(N2CCN(C(=O)c3ccc(Br)cc3)CC2)c(F)c1`: the IC50 is above 10 µM in assay [1] and > 10 µM (inactive) in assay [2].
With `O=C(O)c1cc(-c2ccc(/C=N/Nc3ccc(Cl)cc3)o2)ccc1Cl`, the IC50 is 16.4 µM in assay [1] and 15.5 µM in assay [2].
`COc1ccc(C2CC(=O)C3=C(C2)NC(C)=C(C(=O)Nc2ccccc2C)C3c2coc3ccc(C)cc3c2=O)cc1OC` (centres undefined): the values for the IC50 in assay [1] and in assay [2] were above 10 µM and > 10 µM (inactive), respectively.
For `CC(C)COC(=O)c1ccc2c(c1O)C(=O)c1ccccc1C2=O`, the IC50 in assay [1] was above 10 µM; in assay [2], > 10 µM (inactive).
For the compound `Cc1ccn2cc(-c3nonc3C)cc2c1`, the IC50 in assay [1] was above 10 µM; in assay [2], > 10 µM (inactive).
Regarding `CN1C(=O)/C(=C/c2cccn2-c2ccc3ccccc3c2)C(=O)NC1=S`, the figures for the IC50 in assay [1] and in assay [2] were 6.58 µM and 11.3 µM (inactive), respectively.
With `Cc1cccc(-n2c(N)c(C(=O)NCCN3CCOCC3)c3nc4ccccc4nc32)c1`, the IC50 in assay [1] was above 10 µM; in assay [2], > 10 µM (inactive).
As to `Cn1c(=O)c2nc(NCc3ccccc3)cnc2n(C)c1=O`, the results for the IC50 in assay [1] and in assay [2] were above 10 µM and > 10 µM (inactive), respectively.
Take `O=c1c2cccc3c2c(nn1CN1CCOCC1)-c1ccccc1-3`: the IC50 in assay [1] is above 10 µM; in assay [2], > 10 µM (inactive).
Regarding `O=C(CCC(=O)OCC(=O)c1ccc(F)cc1)NC1CCCCC1`, the IC50 was above 10 µM in assay [1] and > 10 µM (inactive) in assay [2].
In the case of `O=C(NC1CCCC1)C(c1ccsc1)N(C(=O)Cc1cccs1)c1ccc(F)cc1` (centres undefined), the IC50 in assay [1] was above 10 µM; in assay [2], > 10 µM (inactive).
For `O=C(c1ccco1)N1CCN(c2ncnc3c2[nH]c2ccccc23)CC1`, in that order: above 10 µM and > 10 µM (inactive).
As to `O=C(COc1ccc(Cl)cc1Cl)N1CCN(C/C=C/c2ccccc2)CC1`, the results for the half-maximal inhibitory concentration (IC50) in assay [1] and in assay [2] were 7.14 µM and 4.89 µM, respectively.
For `N=c1nc(N)nc2n1NC(c1ccc(F)cc1)=CS2`, in that order: above 10 µM and > 10 µM (inactive).
As for `CC(C)Cc1[nH]c(=O)c(C#N)c2c1CCC2`, the IC50 in assay [1] is above 10 µM; in assay [2], > 10 µM (inactive).
For `Clc1ccc(Cn2nnc(-c3ccc(CN4CCOCC4)cc3)n2)cc1`, the IC50 in assay [1] was above 10 µM; in assay [2], 18.9 µM.
Take `Cc1cc([N+](=O)[O-])c(-c2ccc(/C=N/n3cnnc3)o2)cc1Cl`: the IC50 was 0.134 µM in assay [1] and 0.526 µM (inactive) in assay [2].
As for `Fc1ccc(-c2noc(C3CCN(Cc4cccnc4)CC3)n2)cc1`, the IC50 in assay [1] was above 10 µM; in assay [2] it was > 10 µM (inactive).
Regarding `CCn1c(=O)[nH]c2cc(C(=O)N3CCN(c4ccccc4)CC3)ccc2c1=O`, the half-maximal inhibitory concentration (IC50) in assay [1] is above 10 µM; in assay [2] it was > 10 µM (inactive).
With `N#Cc1cn(-c2ccccc2)nc1-c1cc2ccccc2oc1=O`, the IC50 in assay [1] was above 10 µM; in assay [2], > 10 µM (inactive).
Regarding `O=C(c1ccco1)N1CCN=C1SCc1cccnc1`, the 50% inhibitory concentration (IC50) in assay [1] was above 10 µM; in assay [2], > 10 µM (inactive).
`CC(=O)NC1C(c2nc3ccccc3s2)=C(c2ccccc2)C(=O)N1c1ccc(C)cc1` (centres undefined): the IC50 in assay [1] is 1.92 µM; in assay [2], 2.89 µM (inactive).
Regarding `Cc1ccc2cc(CN(CCO)Cc3nnnn3Cc3ccc(F)cc3)c(=O)[nH]c2c1`, the IC50 in assay [1] is above 10 µM; in assay [2], > 10 µM (inactive).
Consider `CCN(CC)CCCN(Cc1cc2cc3c(cc2[nH]c1=O)OCCO3)C(=O)Nc1ccc(F)cc1`, for which the IC50 in assay [1] is above 10 µM; in assay [2], > 10 µM (inactive).
With `CCOC(=O)c1c(NC(=O)CN2CCCCC2)sc2c1CCC(C=O)=C2Cl`, the half-maximal inhibitory concentration (IC50) was above 10 µM in assay [1] and > 10 µM (inactive) in assay [2].
On to `O=C1NC2(Nc3ccccc31)C(=O)Nc1ccccc12` (centres undefined), for which the results for the IC50 in assay [1] and in assay [2] were above 10 µM and > 10 µM (inactive), respectively.
For the compound `O=C(COc1ccc(Cl)cc1)Nc1ccc(N2CCN(C(=O)c3ccco3)CC2)cc1`, the concentration for half-maximal inhibition (IC50) in assay [1] was above 10 µM; in assay [2] it was > 10 µM (inactive).
